Results: US10336732B2, “1-heterocyclyl isochromanyl compounds and analogs for treating CNS disorders” (Sunovion Pharmaceuticals Inc., priority 2015, dated 2019)

Key:
sigma (non-selective) = assay: In vitro radioligand binding assay, sigma (non-selective), [3H]DTG, Jurkat cells; conditions: Jurkat cells (endogenous)
Experimental: (§1) Certain compounds were tested by in vitro binding assays using standard procedures. […] These receptors and assays are well known to those skilled in the art, as exemplified by the following: Abramovitz, M. et al. (2000), Biochem. Biophys. Acta., 1483: 285-293 (EP4, IP (PGI2)); Aharony, D. et al. (1993), Mol. Pharmacol., 44: 356-363 (NK2); Ardati, A. et al. (1997), Mol. Pharmacol., 51: 816-824 (NOP (ORL1)); Bignon, E. et al. (1999), J. Pharmacol. Exp. Ther. 289: 742-751 (CCK1 (CCKA)); Bloomquist, B. T. et al. (1998), Biochem. Biophys. Res. Commun., 243: 474-479 (GAL2); Brockhaus, M. et al. (1990), Proc. Natl. Acad. Sci. U.S.A., 87: 3127-3131 (TNF-α); Brown, G. B. (1986), J. Neurosci., 6: 2064-2070 (Na+ channel (site 2)); Buchan, K. W. et al. (1994), Brit. J. Pharmacol., 112: 1251-1257 (ETA); Cesura, A. M. et al. (1990), Mol. Pharmacol., 37: 358-366 (MAO-A); Choi, D. S. et al. (1994), FEBS Lett., 352: 393-399 (5-HT2B); Clark, A. F. et al. (1996), Invest. Ophtalmol. Vis. […]

5-HT transporter = biological target: T1, 5-HT transporter (Homo sapiens, UniProt P31645); assay: In vitro radioligand binding assay, 5-HT transporter, [3H]imipramine; conditions: human recombinant (CHO cells)
T1 construct: expressed in transfected cells; host or cells: CHO cells
Experimental: as §1

5-HT5a = biological target: T2, 5-HT5a (Homo sapiens, UniProt P47898); assay: In vitro radioligand binding assay, 5-HT5a, [3H]LSD; conditions: human recombinant (HEK-293 cells)
T2 construct: expressed in transfected cells; host or cells: HEK-293 cells
Experimental: as §1

T1 sequence (P31645 whole entry): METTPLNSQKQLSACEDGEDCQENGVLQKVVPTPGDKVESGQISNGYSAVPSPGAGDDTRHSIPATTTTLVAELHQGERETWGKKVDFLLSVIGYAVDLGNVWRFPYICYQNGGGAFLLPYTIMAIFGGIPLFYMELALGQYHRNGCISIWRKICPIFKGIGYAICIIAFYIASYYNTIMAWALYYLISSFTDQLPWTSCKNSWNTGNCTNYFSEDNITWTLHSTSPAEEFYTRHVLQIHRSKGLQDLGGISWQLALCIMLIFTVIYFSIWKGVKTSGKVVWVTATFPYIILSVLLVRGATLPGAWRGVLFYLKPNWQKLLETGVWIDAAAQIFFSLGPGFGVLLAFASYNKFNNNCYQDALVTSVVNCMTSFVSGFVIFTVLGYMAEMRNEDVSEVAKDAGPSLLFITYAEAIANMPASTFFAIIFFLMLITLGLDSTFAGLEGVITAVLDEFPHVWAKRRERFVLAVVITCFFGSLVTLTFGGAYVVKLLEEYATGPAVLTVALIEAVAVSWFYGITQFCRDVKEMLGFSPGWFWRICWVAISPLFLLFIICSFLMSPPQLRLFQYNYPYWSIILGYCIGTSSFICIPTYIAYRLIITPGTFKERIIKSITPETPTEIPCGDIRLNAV
T2 sequence (P47898 whole entry): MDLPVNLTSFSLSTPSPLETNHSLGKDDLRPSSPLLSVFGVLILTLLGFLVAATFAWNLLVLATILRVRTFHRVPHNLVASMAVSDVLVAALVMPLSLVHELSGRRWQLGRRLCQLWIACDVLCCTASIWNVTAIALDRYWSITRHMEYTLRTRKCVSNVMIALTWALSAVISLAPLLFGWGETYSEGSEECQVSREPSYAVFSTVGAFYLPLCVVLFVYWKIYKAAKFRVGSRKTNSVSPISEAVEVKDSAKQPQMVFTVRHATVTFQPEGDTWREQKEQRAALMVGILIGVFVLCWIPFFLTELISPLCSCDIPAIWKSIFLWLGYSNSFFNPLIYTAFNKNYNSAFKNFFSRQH

| Structure (SMILES) | sigma percent inhibition of specific binding (sigma (non-selective)) | Sert percent inhibition of specific binding (5-HT transporter) | 5HT5a percent inhibition of specific binding (5-HT5a) |
| --- | --- | --- | --- |
| Fc1cccc2c1CCO[C@@H]2[C@@H]1CCN1 [Compound I-94, (S)-2-((S)-5-fluoroisochroman-1-yl)azetidine] | sigma (85%) | – | – |
| Fc1ccc2c(c1)CCO[C@H]2[C@@H]1CCN1 [Compound I-90, (S)-2-((R)-6-fluoroisochroman-1-yl)azetidine] | 63% | 80% | – |
| Fc1cccc2c1[C@H]([C@@H]1CCN1)OCC2 [Compound I-83, (S)-2-((R)-8-fluoroisochroman-1-yl)azetidine] | – | – | 58% |
